Experimental data reported in ChEMBL document CHEMBL1201862, “PubChem BioAssay data set” (2004).
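Values below derive from 48-hour exposures of cells grown in 96-well plates, with endpoints linearly interpolated between the two concentrations bracketing the appropriate inhibition level. Here, GI50 denotes the concentration required for 50% inhibition of growth.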 Active and inactive are the calls of the source. Cut-off read from the data, not from the text of the source: active = GI50 up to about 1.1 µM and inactive = higher.

Legend:
Assay in all cases: NCI tumour cell line growth inhibition, 48 h
786-0 = system: 786-0
A549 = system: A549
ACHN = system: ACHN
CAKI-1 = system: CAKI-1
CCRF-CEM = system: CCRF-CEM
DLD-1 = system: DLD-1
DMS-114 = system: DMS-114
EKVX = system: EKVX
HCC 2998 = system: HCC 2998
HCT-116 = system: HCT-116
HCT-15 = system: HCT-15
HL-60 = system: HL-60
HOP-18 = system: HOP-18
HOP-62 = system: HOP-62
HOP-92 = system: HOP-92
HT-29 = system: HT-29
IGROV-1 = system: IGROV-1
K562 = system: K562
KM-20L2 = system: KM-20L2
KM12 = system: KM12
LOX IMVI = system: LOX IMVI
LXFL 529 = system: LXFL 529
M14 = system: M14
MOLT-4 = system: MOLT-4
Malme-3M = system: Malme-3M
NCI-H23 = system: NCI-H23
NCI-H460 = system: NCI-H460
NCI-H522 = system: NCI-H522
OVCAR-3 = system: OVCAR-3
OVCAR-4 = system: OVCAR-4
OVCAR-5 = system: OVCAR-5
OVCAR-8 = system: OVCAR-8
RPMI-8226 = system: RPMI-8226
SF-268 = system: SF-268
SF-295 = system: SF-295
SF-539 = system: SF-539
SK-MEL-2 = system: SK-MEL-2
SK-OV-3 = system: SK-OV-3
SNB-19 = system: SNB-19
SNB-75 = system: SNB-75
SNB-78 = system: SNB-78
SR = system: SR
SW-620 = system: SW-620
U-251 = system: U-251
UACC-257 = system: UACC-257
UACC-62 = system: UACC-62
UO-31 = system: UO-31
XF498 = system: XF498
A498 = system: A498
COLO 205 = system: COLO 205
DMS-273 = system: DMS-273
M19-MEL = system: M19-MEL
NCI-H226 = system: NCI-H226
RXF 631 = system: RXF 631
SK-MEL-28 = system: SK-MEL-28
SK-MEL-5 = system: SK-MEL-5
SN12C = system: SN12C
TK-10 = system: TK-10
RXF 393 = system: RXF 393

In the case of `COC(=O)/C=C(C)/C=C/c1cc(C(C)=O)c(C)o1`, the GI50 (786-0) is reported as > 100 µM (inactive), the GI50 (A549) is reported as 66.7 µM (inactive) and the GI50 (ACHN) is reported as > 100 µM (inactive). For the same molecule, the GI50 (CAKI-1) was > 100 µM (inactive), the GI50 (CCRF-CEM) was > 100 µM (inactive) and the GI50 (DLD-1) was 43.8 µM (inactive). For the same molecule, the GI50 (DMS-114) was 93.3 µM (inactive), the GI50 (EKVX) was 51.9 µM (inactive) and the GI50 (HCC 2998) was > 100 µM (inactive). For the same molecule, the GI50 (HCT-116) was > 100 µM (inactive), the GI50 (HCT-15) was over 100 µM and the GI50 (HL-60) was > 100 µM (inactive). For the same molecule, the GI50 (HOP-18) was 46.9 µM (inactive), the GI50 (HOP-62) was > 100 µM (inactive) and the GI50 (HOP-92) was 23.2 µM (inactive). The GI50 (HT-29) was > 100 µM (inactive), the GI50 (IGROV-1) was > 100 µM (inactive) and the GI50 (K562) was 62.1 µM (inactive). For the same molecule, the GI50 (KM-20L2) was > 100 µM (inactive), the GI50 (KM12) was > 100 µM (inactive) and the GI50 (LOX IMVI) was > 100 µM (inactive). The GI50 (LXFL 529) was 93.1 µM (inactive), the GI50 (M14) was > 100 µM (inactive) and the GI50 (MOLT-4) was 62.5 µM (inactive). The GI50 (Malme-3M) was > 100 µM (inactive), the GI50 (NCI-H23) was > 100 µM (inactive) and the GI50 (NCI-H460) was > 100 µM (inactive). For the same molecule, the GI50 (NCI-H522) was > 100 µM (inactive), the GI50 (OVCAR-3) was > 100 µM (inactive) and the GI50 (OVCAR-4) was 94.2 µM (inactive). The GI50 (OVCAR-5) was 78.7 µM (inactive), the GI50 (OVCAR-8) was > 100 µM (inactive) and the GI50 (RPMI-8226) was 54.7 µM (inactive). The GI50 (SF-268) was > 100 µM (inactive), the GI50 (SF-295) was > 100 µM (inactive) and the GI50 (SF-539) was > 100 µM (inactive). The GI50 (SK-MEL-2) was > 100 µM (inactive), the GI50 (SK-OV-3) was > 100 µM (inactive) and the GI50 (SNB-19) was > 100 µM (inactive). The GI50 (SNB-75) was 68.4 µM (inactive), the GI50 (SNB-78) was > 100 µM (inactive) and the GI50 (SR) was > 100 µM (inactive). The GI50 (SW-620) was > 100 µM (inactive), the GI50 (U-251) was > 100 µM (inactive) and the GI50 (UACC-257) was > 100 µM (inactive). The GI50 (UACC-62) was 82 µM (inactive), the GI50 (UO-31) was 86.9 µM (inactive) and the GI50 (XF498) was > 100 µM (inactive).
In the case of `Cc1ccc(C(O)(c2ccc(C)cc2)c2ccccn2)cc1`, the GI50 (786-0) is reported as > 100 µM (inactive), the GI50 (A498) is reported as > 100 µM (inactive) and the GI50 (A549) is reported as 64.6 µM (inactive). For the same molecule, the GI50 (ACHN) was > 100 µM (inactive), the GI50 (CAKI-1) was > 100 µM (inactive) and the GI50 (CCRF-CEM) was 51.5 µM (inactive). For the same molecule, the GI50 (COLO 205) was > 100 µM (inactive), the GI50 (DLD-1) was > 100 µM (inactive) and the GI50 (DMS-114) was > 100 µM (inactive). For the same molecule, the GI50 (DMS-273) was > 100 µM (inactive), the GI50 (EKVX) was 86.7 µM (inactive) and the GI50 (HCC 2998) was > 100 µM (inactive). For the same molecule, the GI50 (HCT-116) was 68.9 µM (inactive), the GI50 (HCT-15) was over 100 µM and the GI50 (HOP-18) was > 100 µM (inactive). For the same molecule, the GI50 (HOP-62) was > 100 µM (inactive), the GI50 (HT-29) was 80.7 µM (inactive) and the GI50 (IGROV-1) was > 100 µM (inactive). For the same molecule, the GI50 (K562) was 71.6 µM (inactive), the GI50 (KM-20L2) was > 100 µM (inactive) and the GI50 (KM12) was > 10 µM (inactive). The GI50 (LOX IMVI) was > 100 µM (inactive), the GI50 (M14) was > 100 µM (inactive) and the GI50 (M19-MEL) was > 100 µM (inactive). For the same molecule, the GI50 (Malme-3M) was > 100 µM (inactive), the GI50 (NCI-H226) was > 100 µM (inactive) and the GI50 (NCI-H23) was 80.2 µM (inactive). The GI50 (NCI-H460) was > 100 µM (inactive), the GI50 (OVCAR-3) was > 100 µM (inactive) and the GI50 (OVCAR-4) was > 100 µM (inactive). For the same molecule, the GI50 (OVCAR-5) was > 100 µM (inactive), the GI50 (OVCAR-8) was > 100 µM (inactive) and the GI50 (RPMI-8226) was > 100 µM (inactive). The GI50 (RXF 631) was > 100 µM (inactive), the GI50 (SF-268) was > 100 µM (inactive) and the GI50 (SF-295) was > 100 µM (inactive). The GI50 (SF-539) was > 100 µM (inactive), the GI50 (SK-MEL-28) was > 100 µM (inactive) and the GI50 (SK-MEL-2) was > 100 µM (inactive). For the same molecule, the GI50 (SK-MEL-5) was > 100 µM (inactive), the GI50 (SK-OV-3) was > 100 µM (inactive) and the GI50 (SN12C) was > 100 µM (inactive). For the same molecule, the GI50 (SNB-19) was > 100 µM (inactive), the GI50 (SNB-75) was 30.9 µM (inactive) and the GI50 (SNB-78) was > 100 µM (inactive). The GI50 (SW-620) was > 100 µM (inactive), the GI50 (TK-10) was 62.1 µM (inactive) and the GI50 (U-251) was > 100 µM (inactive). For the same molecule, the GI50 (UACC-257) was > 100 µM (inactive), the GI50 (UACC-62) was > 100 µM (inactive) and the GI50 (UO-31) was 38.3 µM (inactive).
In the case of `COc1ccc(C(=O)C(C(=O)C(=O)Nc2ccc(Cl)c(Cl)c2)c2ccc(OC)cc2)cc1` (configuration not stated), the GI50 (786-0) is reported as > 100 µM (inactive), the GI50 (A498) is reported as > 100 µM (inactive) and the GI50 (A549) is reported as > 100 µM (inactive). The GI50 (ACHN) was > 100 µM (inactive), the GI50 (CAKI-1) was > 100 µM (inactive) and the GI50 (DLD-1) was > 100 µM (inactive). The GI50 (DMS-114) was 76.9 µM (inactive), the GI50 (DMS-273) was > 100 µM (inactive) and the GI50 (EKVX) was > 100 µM (inactive). The GI50 (HCC 2998) was > 100 µM (inactive), the GI50 (HCT-116) was > 100 µM (inactive) and the GI50 (HCT-15) was over 100 µM. For the same molecule, the GI50 (HL-60) was 78.5 µM (inactive), the GI50 (HOP-18) was > 100 µM (inactive) and the GI50 (HOP-62) was > 100 µM (inactive). The GI50 (HOP-92) was > 100 µM (inactive), the GI50 (HT-29) was > 100 µM (inactive) and the GI50 (IGROV-1) was > 100 µM (inactive). The GI50 (K562) was > 100 µM (inactive), the GI50 (KM-20L2) was > 100 µM (inactive) and the GI50 (KM12) was > 100 µM (inactive). The GI50 (LOX IMVI) was > 100 µM (inactive), the GI50 (LXFL 529) was > 100 µM (inactive) and the GI50 (M14) was > 100 µM (inactive). For the same molecule, the GI50 (M19-MEL) was > 100 µM (inactive), the GI50 (MOLT-4) was > 100 µM (inactive) and the GI50 (Malme-3M) was > 100 µM (inactive). For the same molecule, the GI50 (NCI-H226) was > 100 µM (inactive), the GI50 (NCI-H23) was > 100 µM (inactive) and the GI50 (NCI-H460) was > 100 µM (inactive). The GI50 (OVCAR-3) was > 100 µM (inactive), the GI50 (OVCAR-4) was > 100 µM (inactive) and the GI50 (OVCAR-5) was > 100 µM (inactive). For the same molecule, the GI50 (OVCAR-8) was > 100 µM (inactive), the GI50 (RPMI-8226) was > 100 µM (inactive) and the GI50 (RXF 393) was > 100 µM (inactive). For the same molecule, the GI50 (SF-268) was > 100 µM (inactive), the GI50 (SF-295) was > 100 µM (inactive) and the GI50 (SF-539) was > 100 µM (inactive). The GI50 (SK-MEL-28) was > 100 µM (inactive), the GI50 (SK-MEL-2) was > 100 µM (inactive) and the GI50 (SK-MEL-5) was > 100 µM (inactive). For the same molecule, the GI50 (SN12C) was > 100 µM (inactive), the GI50 (SNB-19) was > 100 µM (inactive) and the GI50 (SNB-75) was 57.5 µM (inactive). The GI50 (SNB-78) was > 100 µM (inactive), the GI50 (SW-620) was > 100 µM (inactive) and the GI50 (TK-10) was > 100 µM (inactive). For the same molecule, the GI50 (U-251) was > 100 µM (inactive), the GI50 (UACC-257) was > 100 µM (inactive) and the GI50 (UACC-62) was > 100 µM (inactive). The GI50 (UO-31) was > 100 µM (inactive) and the GI50 (XF498) was > 100 µM (inactive).
